Measurements published in patent publication US20220016102A1, “ER PROTEIN REGULATORS AND USE THEREOF” (ShanghaiTech University, priority 2018, published 2022).

Each molecule was assayed against T1, ER protein (Homo sapiens, UniProt P03372) (assay: Western blotting analysis of ER protein degradation in T47D cell line). Settings: T47D cells, FIGS. 1(A)-(O).
T1 sequence (P03372 1-595): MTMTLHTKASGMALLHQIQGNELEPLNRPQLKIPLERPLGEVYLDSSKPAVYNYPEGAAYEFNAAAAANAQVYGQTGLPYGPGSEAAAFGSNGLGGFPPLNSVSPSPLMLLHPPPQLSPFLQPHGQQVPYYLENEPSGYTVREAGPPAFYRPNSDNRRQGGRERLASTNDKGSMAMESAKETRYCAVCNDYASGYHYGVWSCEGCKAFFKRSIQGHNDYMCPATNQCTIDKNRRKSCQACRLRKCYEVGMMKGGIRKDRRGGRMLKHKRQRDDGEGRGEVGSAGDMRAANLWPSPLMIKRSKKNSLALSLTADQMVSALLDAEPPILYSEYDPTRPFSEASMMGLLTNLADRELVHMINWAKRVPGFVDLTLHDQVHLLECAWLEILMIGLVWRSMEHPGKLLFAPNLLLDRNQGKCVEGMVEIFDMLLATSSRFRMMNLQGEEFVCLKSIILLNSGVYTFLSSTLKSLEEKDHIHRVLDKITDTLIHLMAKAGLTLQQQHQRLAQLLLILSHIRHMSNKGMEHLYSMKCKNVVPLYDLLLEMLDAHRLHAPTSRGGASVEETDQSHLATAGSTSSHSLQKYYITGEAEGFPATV
Type: cell-based
Parameters: western blotting detection of the level of intracellular ER protein; endogenous in cells; host or cells: T47D
Procedure: T47D cells were cultured in an incubator with 5% CO2 at 37° C. Complete medium was RPMI1640 supplemented with 10% Foetal bovine serum (FBS), 100 U/ml Penicillin and Streptomycin, and 0.77 μg/mL recombinant human insulin. Western blotting analysis of T47D cell line: • Cells were plated in a 24-well plate at a cell seeding […] of 1.5×10^5 cells/mL, with 1 ml cell suspensions per well. • After 24 h the cells were adherent, and the cells in each well were treated with 1 μL a certain concentration of ER protein regulators of the present disclosure. […] Afterwards, the membranes were block by using the Blocking Buffer, and the antibody incubation and development were performed. (The above procedures were all based on the antibody product manual of the manufacturer) DC50 value (the drug concentration required for degrading proteins by 50%, abbreviated as DC50) reads method: comparing the gray values of the Western blotting bands for the drug treatment with the gray values of the Western blotting band for the DMSO control, and reading the drug concentration range corresponding to the gray value of the Western blotting bands for the drug treatment which is equal to half of the gray value of the Western blotting band for the DMSO control. DC50 value could also be calculated as follows: using software ImageJ to quantify the gray values of the Western blotting bands for the drug treatment, fitting the relationship curve between drug concentrations and gray values, and from the fitted curve, calculating the drug concentration corresponding to half of the gray value of the Western blotting band for the DMSO control.

| Degradation of the ER protein in the T47D cell line (Western blotting) | SMILES |
| --- | --- |
| did not degrade the ER protein | NCCOc1ccc(C(=C(CCCl)c2ccccc2)c2ccc(O)cc2)cc1 [Toremifene derivative B, 4-(1-(4-(2-aminoethoxy)phenyl)-4-chloro-2-phenylbut-1-en-1-yl)phenol, reference compound] |

Same assay, conditions: degradation of ER protein, T47D cells, drug treatment for 16 hours, Western blot gray values vs DMSO control; read-out: DC50 (nM)/T47Dcell line

| DC50 | SMILES |
| --- | --- |
| < 50 nM | Cc1ncsc1-c1ccc(CNC(=O)[C@@H]2C[C@@H](O)CN2C(=O)[C@@H](NC(=O)CCCCC(=O)N2CCN(CCOc3ccc(C(=C(CCCl)c4ccccc4)c4ccc(O)cc4)cc3)CC2)C(C)(C)C)cc1 [SIAIS251043, (2S,4R)-1-((S)-2-(6-(4-(2-(4-(4-chloro-1-(4-hydroxyphenyl)-2-phenylbut-1-en-1-yl)phenoxy)ethyl)piperazin-1-yl)-6-oxohexanamido)-3,3-dimethylbutanoyl)-4-hydroxy-N-(4-(4-methylthiazol-5-yl)benzyl)pyrrolidine-2-carboxamide] |
| < 50 nM | Cc1ncsc1-c1ccc(CNC(=O)[C@@H]2C[C@@H](O)CN2C(=O)[C@@H](NC(=O)CCCC(=O)N2CCN(CCOc3ccc(C(=C(CCCl)c4ccccc4)c4ccc(O)cc4)cc3)CC2)C(C)(C)C)cc1 [SIAIS251042, (2S,4R)-1-((S)-2-(5-(4-(2-(4-(4-chloro-1-(4-hydroxyphenyl)-2-phenylbut-1-en-1-yl)phenoxy)ethyl)piperazin-1-yl)-5-oxopentanamido)-3,3-dimethylbutanoyl)-4-hydroxy-N-(4-(4-methylthiazol-5-yl)benzyl)pyrrolidine-2-carboxamide] |

The remaining lines, values behind:

| SMILES | DC50 |
| --- | --- |
| Cc1ncsc1-c1ccc(CNC(=O)[C@@H]2C[C@@H](O)CN2C(=O)[C@@H](NC(=O)CCOCCOCCOCCOCCC(=O)N2CCN(CCOc3ccc(C(=C(CCCl)c4ccccc4)c4ccc(O)cc4)cc3)CC2)C(C)(C)C)cc1 [SIAIS251051, (2S,4R)-1-((S)-2-(tert-butyl)-19-(4-(2-(4-(4-chloro-1-(4-hydroxyphenyl)-2-phenylbut-1-en-1-yl)phenoxy)ethyl)piperazin-1-yl)-4,19-dioxo-7,10,13,16-tetraoxa-3-azanonadecanoyl)-4-hydroxy-N-(4-(4-methylthiazol-5-yl)benzyl)pyrrolidine-2-carboxamide] | < 50 nM |
| Cc1ncsc1-c1ccc(CNC(=O)[C@@H]2C[C@@H](O)CN2C(=O)[C@@H](NC(=O)CCCCCC(=O)N(C)CCOc2ccc(/C(=C(/CCCl)c3ccccc3)c3ccccc3)cc2)C(C)(C)C)cc1 [SIAIS180029, N1-(2-(4-((Z)-4-chloro-1,2-diphenylbut-1-en-1-yl)phenoxy)ethyl)-N7-((S)-1-((2S,4R)-4-hydroxy-2-((4-(4-methylthiazol-5-yl)benzyl)carbamoyl)pyrrolidin-1-yl)-3,3-dimethyl-1-oxobutan-2-yl)-N1-methylheptanediamide] | 100 nM |
| CCC(=C(c1ccc(O)cc1)c1ccc(OCCNC(=O)CCCCCCCC(=O)N[C@H](C(=O)N2C[C@H](O)C[C@H]2C(=O)NCc2ccc(-c3scnc3C)cc2)C(C)(C)C)cc1)c1ccc(O)cc1 [SIAIS208167, N1-(2-(4-(1,2-bis(4-hydroxyphenyl)but-1-en-1-yl)phenoxy)ethyl)-N9-((S)-1-((2S,4R)-4-hydroxy-2-((4-(4-methylthiazol-5-yl)benzyl)carbamoyl)pyrrolidin-1-yl)-3,3-dimethyl-1-oxobutan-2-yl)nonanediamide] | < 50 nM |
| Cc1ncsc1-c1ccc(CNC(=O)[C@@H]2C[C@@H](O)CN2C(=O)[C@@H](NC(=O)CCOCCOCCOCCC(=O)N2CCN(CCOc3ccc(C(=C(CCCl)c4ccccc4)c4ccc(O)cc4)cc3)CC2)C(C)(C)C)cc1 [SIAIS251050, (2S,4R)-1-((S)-2-(tert-butyl)-16-(4-(2-(4-(4-chloro-1-(4-hydroxyphenyl)-2-phenylbut-1-en-1-yl)phenoxy)ethyl)piperazin-1-yl)-4,16-dioxo-7,10,13-trioxa-3-azahexadecanoyl)-4-hydroxy-N-(4-(4-methylthiazol-5-yl)benzyl)pyrrolidine-2-carboxamide] | < 50 nM |
